Tests used:
TIE-2 = TIE-2 (Homo sapiens, UniProt Q02763); conditions: read-out: IC 50 TIE-2; cited from earlier work
kinases = conditions: other kinases inhibited; cited from earlier work
breast tumor fragments = assay: Expansion of T cells in vitro from breast tumor fragments treated with kinase inhibitors (Example 2); type: cell-based, human; conditions: first 20 days of culture, high doses IL-2, 12 h inhibitor treatment
Text: The fragments were washed, placed in culture as previously described and 20 days later the number of T cells obtained were counted. Antibodies and multimers of MHC class I: antibodies specific for CD4, CD8, CD3 and CD28 were from Beckton Dikinson. Antibodies specific for PD-1 were from Affimetrix eBioscience (clone J105, PD-1 PerCP-eF710), anti-LAG-3 antibodies were from Enzo Life Science (clone 17B4, LAG-3-FITC), anti-CD137 antibodies were from Biolegend (clone 4B4-1, CD137-BV605). Fluorescently labelled Her2/neu MHC-classI multimers were from TCMetrix (Epalinges, Swizerland).

VEGFR-1 = VEGFR-1 (Homo sapiens, UniProt P17948); conditions: cited from earlier work
Sequence of VEGFR-1 (P17948 27-1338, species assumed): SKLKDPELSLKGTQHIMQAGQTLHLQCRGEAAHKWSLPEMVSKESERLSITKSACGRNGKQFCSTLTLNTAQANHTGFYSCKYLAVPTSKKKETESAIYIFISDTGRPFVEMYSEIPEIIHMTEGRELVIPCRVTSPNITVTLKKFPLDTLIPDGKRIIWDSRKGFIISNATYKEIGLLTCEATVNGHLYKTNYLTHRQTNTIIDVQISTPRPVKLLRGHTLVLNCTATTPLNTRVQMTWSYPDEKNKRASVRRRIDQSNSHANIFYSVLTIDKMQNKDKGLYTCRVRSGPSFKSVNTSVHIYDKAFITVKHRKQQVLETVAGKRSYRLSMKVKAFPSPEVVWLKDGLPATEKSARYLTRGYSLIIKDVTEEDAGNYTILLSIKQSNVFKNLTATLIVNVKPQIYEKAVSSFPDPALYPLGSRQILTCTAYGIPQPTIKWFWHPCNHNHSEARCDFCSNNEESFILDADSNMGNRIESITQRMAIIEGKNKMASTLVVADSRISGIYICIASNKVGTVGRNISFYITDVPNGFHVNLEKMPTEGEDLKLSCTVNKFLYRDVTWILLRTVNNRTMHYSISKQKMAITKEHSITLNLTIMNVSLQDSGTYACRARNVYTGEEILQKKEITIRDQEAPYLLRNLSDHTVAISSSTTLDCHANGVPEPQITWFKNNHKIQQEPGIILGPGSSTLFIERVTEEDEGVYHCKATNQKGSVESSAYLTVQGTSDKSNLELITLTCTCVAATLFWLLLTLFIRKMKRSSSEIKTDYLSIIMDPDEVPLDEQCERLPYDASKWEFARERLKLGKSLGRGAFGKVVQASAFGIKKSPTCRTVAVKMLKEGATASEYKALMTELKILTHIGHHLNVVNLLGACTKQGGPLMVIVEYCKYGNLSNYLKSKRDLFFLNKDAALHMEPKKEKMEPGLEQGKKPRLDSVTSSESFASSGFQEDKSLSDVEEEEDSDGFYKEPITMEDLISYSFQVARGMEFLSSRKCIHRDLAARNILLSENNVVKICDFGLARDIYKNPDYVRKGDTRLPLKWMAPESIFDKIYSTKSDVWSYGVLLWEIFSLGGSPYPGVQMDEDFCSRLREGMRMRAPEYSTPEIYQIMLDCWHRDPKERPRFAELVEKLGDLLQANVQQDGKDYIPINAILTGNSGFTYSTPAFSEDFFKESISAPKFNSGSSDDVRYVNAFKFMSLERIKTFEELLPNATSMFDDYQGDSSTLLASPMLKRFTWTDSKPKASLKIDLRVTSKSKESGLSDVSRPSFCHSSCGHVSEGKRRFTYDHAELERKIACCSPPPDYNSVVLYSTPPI

Sequence of TIE-2 (Q02763 23-1124, species assumed): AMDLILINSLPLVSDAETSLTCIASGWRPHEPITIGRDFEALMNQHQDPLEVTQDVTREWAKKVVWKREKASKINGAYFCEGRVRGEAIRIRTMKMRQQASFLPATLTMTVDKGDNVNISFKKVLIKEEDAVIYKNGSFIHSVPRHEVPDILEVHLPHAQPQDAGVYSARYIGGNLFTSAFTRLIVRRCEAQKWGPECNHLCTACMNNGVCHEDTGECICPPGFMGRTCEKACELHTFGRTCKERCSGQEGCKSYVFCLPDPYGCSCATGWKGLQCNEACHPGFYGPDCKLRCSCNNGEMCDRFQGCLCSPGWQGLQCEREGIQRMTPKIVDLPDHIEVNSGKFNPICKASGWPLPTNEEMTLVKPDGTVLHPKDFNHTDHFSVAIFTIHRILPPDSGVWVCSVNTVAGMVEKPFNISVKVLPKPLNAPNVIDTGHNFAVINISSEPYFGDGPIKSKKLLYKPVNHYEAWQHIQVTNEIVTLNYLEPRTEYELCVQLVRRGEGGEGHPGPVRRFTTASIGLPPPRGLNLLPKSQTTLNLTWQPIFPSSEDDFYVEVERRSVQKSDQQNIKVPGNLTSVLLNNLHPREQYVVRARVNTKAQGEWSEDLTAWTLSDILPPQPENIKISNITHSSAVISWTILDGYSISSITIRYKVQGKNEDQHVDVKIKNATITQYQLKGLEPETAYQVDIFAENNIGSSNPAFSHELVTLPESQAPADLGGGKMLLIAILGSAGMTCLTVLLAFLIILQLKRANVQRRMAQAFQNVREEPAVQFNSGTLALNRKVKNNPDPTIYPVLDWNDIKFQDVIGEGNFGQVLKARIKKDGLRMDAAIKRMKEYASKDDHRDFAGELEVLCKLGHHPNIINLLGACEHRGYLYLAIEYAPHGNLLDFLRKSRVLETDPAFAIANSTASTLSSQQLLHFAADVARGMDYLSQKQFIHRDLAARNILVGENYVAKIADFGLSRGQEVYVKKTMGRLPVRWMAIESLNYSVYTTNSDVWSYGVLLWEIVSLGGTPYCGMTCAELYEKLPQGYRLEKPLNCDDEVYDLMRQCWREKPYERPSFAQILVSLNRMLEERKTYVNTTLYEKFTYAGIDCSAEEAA

Cc1ccc(OC(=O)N(CC(=O)N[C@@H](C)C2CCCCC2)Cc2ccc(-c3cncc(C(=O)O)c3)cc2)cc1 [Compound 7, 5-[4-[[[2-[[(1S)-1-Cyclohexylethyl]amino]-2-oxoethyl][(4methylphenoxy)carbonyl]amino]methyl]phenyl]-3-pyridinecarboxylic acid]
IC50 (TIE-2): 300 nM

COc1ccc2cc(-c3[nH]c(-c4ccc([S+](C)[O-])cc4)nc3-c3ccncc3)ccc2c1 (centres unmarked) [SB633825, 4-(5-(6-methoxynaphthalen-2-yl)-2-(4-(methylsulfinyl)phenyl)-1H-imidazol-4-yl)pyridine]
Additional inhibition reported (kinases): p38, PDGFR1
Number of T cells expanded per 1 mm3 of breast tumor tissue (breast tumor fragments): more than one million

O=C(Nc1cc(Oc2cc(F)c(NC(=O)C3(C(=O)Nc4ccc(F)cc4)CC3)cc2F)ccn1)C1CC1 [Altiratinib (DCC-2701), Altiratinib]
Additional inhibition reported (kinases): Met
IC50 (TIE-2): 2 nM

COc1cc2nccc(Oc3ccc(NC(=O)Nc4cc(C)on4)c(Cl)c3)c2cc1OC [Tivozanib]
Additional inhibition reported (kinases): PDGFR, c-Kit

Clc1ccc(Nc2nnc(Cc3ccncc3)c3ccccc23)cc1 [PTK787, Vatalanib]
Additional inhibition reported (kinases): c-Kit, PDGFR

CNC(=O)c1cc(Oc2ccc(NC(=O)Nc3cc(C(C)(C)C)nn3-c3ccc4ncccc4c3)c(F)c2)ccn1 [Rebastinib (DCC-2036), Rebastinib]
IC50 (VEGFR-1): 12 nM
